US20210238169A1, “PROCESS FOR PREPARING A COMPOUND OF FORMULA (XIII)” (PULMOCIDE LIMITED, priority 2014, published 2021)
≈ marks a conversion by molar mass, not a printed value.

Key:
[1] = test system: Aspergillus fumigatus (TR34-L98H strain); experiment: Aspergillus fumigatus invasion in human alveoli bilayers (transwells), GM in lower chamber; type: cell-based; conditions: Compound (I) 1 μg/mL upper chamber, Posaconazole 0.1 μg/mL lower chamber
Protocol: In vitro models of human alveoli, consisting of a bilayer of human alveolar epithelial cells and endothelial cells, were prepared as previously described (Hope et al., 2007). This system allows administration of a test compound to the upper (“air” space) and/or lower (“systemic” space) compartments. This flexibility has been exploited to explore the effects of combination treatments by dosing Compound (I) to the upper chamber and posaconazole or other anti-fungal agents to the lower chamber. Primary human pulmonary artery endothelial cells (HPAEC) were harvested and diluted to 10^6 cells/mL in EGM-2 media (Lonza, Basel, Switzerland). Transwells were inverted and the cell suspension (100 μL/well) was applied to the base of each transwell. The inverted transwells were incubated at RT within a flow hood for 2 hr after which they were turned upright. EGM-2 media was added to the lower (700 μL/well) and upper (100 μL/well) compartments and the transwells were incubated for 48 hr (37° C., 5% CO2). The EGM-2 media in the lower compartment was then replaced with fresh EGM-2 media. A549 cells were harvested and diluted to 5×10^5 cells/mL in 10% EBM, then added to the upper compartment (100 μL/well) of all transwells and the plates incubated for 72 hr (37° C., 5% CO2). Conidia of Aspergillus fumigatus (the itraconazole sensitive strain NCPF2010 and the itraconazole resistant strain TR34-L98H) were cultured separately in Sabouraud dextrose agar for 3 days. A stock conidia suspension of either strain was prepared from a Sabouraud dextrose agar culture by washing with PBS-tween (10 mL; PBS containing 0.05% Tween-20, 100 U/mL Penicillin and 100 U/mL Streptomycin). The conidia count was assessed using a Neubauer haemocytometer and adjusted to 10^6 conidia/mL with PBS. A working stock of conidia was prepared in EBM (conc of 10^5 conidia/mL) immediately prior to use.
Test and reference compounds (or neat DMSO as the vehicle) were added to the appropriate wells of 24-well plates (3 μL/well containing 600 μL of 2% FBS EBM) for lower compartment treatment and to 96-well plates (1 μL/well containing 200 μL of 2% FBS EBM) for the treatment of the upper compartment, to provide a final DMSO concentration of 0.5%. The media in the upper compartment was aspirated and that containing the appropriate test and reference compounds, or vehicle, were added (100 μL/well). Transwells were then transferred into the 24-well plate containing the test and reference compounds or DMSO vehicle. After incubation for 1 hr (35° C., 5% CO2) the conidia suspension (10 μL/well) was added to the upper compartment of each transwell. Plates were then incubated for 24 hr (35° C., 5% CO2). Supernatants from each compartment (5 μL/compartment) were collected and stored (−20° C.). Media was replaced daily after collection of the supernatants and all wells were treated with test and reference compounds or with DMSO, as described above, for 3 days. Samples continued to be collected until fungal growth was visible by eye in all transwells. The levels of GM in the supernatant in lower compartment were then measured by ELISA (BioRad, CA, USA) as an index of Aspergillus fumigatus invasion.

[2] = test system: Aspergillus fumigatus (ATCC 13073); experiment: In vivo anti-fungal activity: CFU in lung and galactomannan in BALF and serum; design: species or system mice; conditions: for ID50, GM in BALF / ID50, GM in serum / ID50, Lung Fungal Load: Prophylactic Regimen
Protocol: Aspergillus fumigatus (ATCC 13073 [strain: NIH 5233], American Type Culture Collection, Manassas, Va., USA) was grown on Malt agar (Nissui Pharmaceutical, Tokyo, Japan) plates for 6-7 days at RT (24±1° C.). Spores were aseptically dislodged from the agar plates and suspended in sterile distilled water with 0.05% Tween 80 and 0.1% agar. On the day of infection, spore counts were assessed by haemocytometer and the inoculum was adjusted to obtain a concentration of 1.67×10^8 spores mL^−1 of physiological saline.
On day 0, animals were infected with the spore suspension (35 μL intra-nasally).
Test compounds were administered intra-nasally ([…]) once daily, 30 min before infection on day 0 and then on days 1, 2 and 3 (representing prophylactic treatment) or on days 1, 2 and 3 only (representing therapeutic treatment). For extended prophylactic treatment, test compounds (35 μL of a suspension of 0.0032 or 0.016 mg/mL in physiological saline) were administered intra-nasally once daily for seven days; then 30 min before infection on day 0, and thereafter, either on days 1, 2 and 3 after infection, or on day 0 only. The effects of these treatment paradigms were compared with those obtained when treatment was restricted to one day and 30 min before inoculation and then on days 1, 2 and 3 post infection; or reduced still further to one day and 30 min before infection only.
Six hours after the last dose, animals were anesthetised, the trachea was cannulated and BALF was collected. The total number of alveolar cells was determined using a haemocytometer, and the numbers of alveolar macrophages and neutrophils were determined by FACS analysis (EPICS® ALTRA II, Beckman Coulter, Inc., Fullerton, Calif., USA) using anti-mouse MOMA2-FITC (macrophage) or anti-mouse 7/4 (neutrophil), respectively, as previously reported (Kimura et al., 2013). The levels of IFN-γ and IL-17 in BALF, and IL-6 and TNFα in serum were determined using Quantikine® mouse IFN-γ, IL-17, IL-6 or TNF-α ELISA kit (R&D systems, Inc., Minneapolis, Minn., USA) respectively. MDA, an oxidative stress marker, was assayed using OxiSelect® TBARS Assay Kits (MDA Quantitation; Cell Biolabs Inc, San Diego, Calif., USA). Aspergillus GM in serum was determination using Platelia GM-EIA kits (Bio-Rad Laboratories, Redmond, Wash., USA). Cut-off index was calculated by the formula: Cut-off index=OD in sample/OD in cut-off control provided in kit. For tissue fungal load assays, 100 mg of lung tissue was removed aseptically and homogenized in 0.2 mL of 0.1% agar in sterile distilled water. Serially diluted lung homogenates were plated on Malt agar plates (50 μL/plate), and incubated at 24±1° C. for 72 to 96 h. The colonies of A. fumigatus on each plate was counted and the fungal titre presented as CFU per gram of lung tissue.

[3] = Prophylactic Treatment, 0.08 mg/mL intra-nasally
[4] = Prophylactic Treatment, 0.4 mg/mL intra-nasally
[5] = Prophylactic Treatment, 2 mg/mL intra-nasally
[6] = Therapeutic Treatment, 0.4 mg/mL intra-nasally
[7] = Therapeutic Treatment, 2 mg/mL intra-nasally
[8] = Therapeutic Treatment, 10 mg/mL intra-nasally

In the case of `Cc1cc(N2CCN(c3ccc(C(=O)Nc4ccc(F)cc4)cc3)CC2)ccc1OC[C@@H]1CO[C@@](Cn2cncn2)(c2ccc(F)cc2F)C1` [Compound (I), 4-(4-(4-(((3R,5R)-5-((1H-1,2,4-triazol-1-yl)methyl)-5-(2,4-difluorophenyl)tetrahydrofuran-3-yl)methoxy)-3-methylphenyl)piperazin-1-yl)-N-(4-fluorophenyl)benzamide], the “DFB50 (days taken to reach a fungal burden of 50% of control)” value [1] is reported as 1.10 days, the “GM Levels in the Lower Chamber, OD value” ([1]; Treatment Day 0) is reported as 0 OD and the “GM Levels in the Lower Chamber, OD value” ([1]; Treatment Day 1) is reported as 0.35 OD. For the same compound, the “GM Levels in the Lower Chamber, OD value” ([1]; Treatment Day 2) was 0.99 OD, the “GM Levels in the Lower Chamber, OD value” ([1]; Treatment Day 3) was 0.99 OD and the “GM Levels in the Lower Chamber, OD value” ([1]; Treatment Day 4) was 1.01 OD. For the same compound, the “ID50, GM in BALF” value [2] was less than 80 µg/mL, the “ID50, GM in serum” value [2] was less than 80 µg/mL and the “ID50, Lung Fungal Load” value [2] was 86 µg/mL (≈ 126 µM). For the same compound, the CFU in lung [2, 3] was 15.2 ± 13.7 /mg of lung, the “CFU in lung, % inhibition” value [2, 3] was 46% and the “GM in BALF” value [2, 3] was 0.70 ± 0.39 COI. The “GM in BALF, % inhibition” value [2, 3] was 85%, the GM in serum [2, 3] was 0.81 ± 0.52 COI and the “GM in serum, % inhibition” value [2, 3] was 85%. The CFU in lung [2, 4] was 2.1 ± 1.6 /mg of lung, the “CFU in lung, % inhibition” value [2, 4] was 93% and the “GM in BALF” value [2, 4] was 0.37 ± 0.46 COI. For the same compound, the “GM in BALF, % inhibition” value [2, 4] was 92%, the GM in serum [2, 4] was 0.24 ± 0.18 COI and the “GM in serum, % inhibition” value [2, 4] was 95%. For the same compound, the CFU in lung [2, 5] was 0.8 ± 0.7 /mg of lung, the “CFU in lung, % inhibition” value [2, 5] was 97% and the “GM in BALF” value [2, 5] was 0.13 ± 0.02 COI. For the same compound, the “GM in BALF, % inhibition” value [2, 5] was 97%, the GM in serum [2, 5] was 0.18 ± 0.07 COI and the “GM in serum, % inhibition” value [2, 5] was 97%. The CFU in lung [2, 6] was 3.8 ± 1.0 /mg of lung, the “CFU in lung, % inhibition” value [2, 6] was 87% and the “GM in BALF” value [2, 6] was 0.24 ± 0.06 COI. For the same compound, the “GM in BALF, % inhibition” value [2, 6] was 95%, the GM in serum [2, 6] was 0.29 ± 0.11 COI and the “GM in serum, % inhibition” value [2, 6] was 95%. The CFU in lung [2, 7] was 1.9 ± 1.7 /mg of lung, the “CFU in lung, % inhibition” value [2, 7] was 93% and the “GM in BALF” value [2, 7] was 0.22 ± 0.14 COI. For the same compound, the “GM in BALF, % inhibition” value [2, 7] was 95%, the GM in serum [2, 7] was 0.25 ± 0.19 COI and the “GM in serum, % inhibition” value [2, 7] was 95%. For the same compound, the CFU in lung [2, 8] was 0.5 ± 0.3 /mg of lung, the “CFU in lung, % inhibition” value [2, 8] was 98% and the “GM in BALF” value [2, 8] was 0.11 ± 0.05 COI. The “GM in BALF, % inhibition” value [2, 8] was 98%, the GM in serum [2, 8] was 0.24 ± 0.11 COI and the “GM in serum, % inhibition” value [2, 8] was 95%.
For `CC[C@@H]([C@H](C)O)n1ncn(-c2ccc(N3CCN(c4ccc(OC[C@@H]5CO[C@@](Cn6cncn6)(c6ccc(F)cc6F)C5)cc4)CC3)cc2)c1=O` [Posaconazole], the “DFB50 (days taken to reach a fungal burden of 50% of control)” value [1] was 1.64 days, the “GM Levels in the Lower Chamber, OD value” ([1]; Treatment Day 0) was 0 OD and the “GM Levels in the Lower Chamber, % inhibition vs. control” value ([1]; Treatment Day 1) was 88%. The “GM Levels in the Lower Chamber, OD value” ([1]; Treatment Day 1) was 0.039 OD, the “GM Levels in the Lower Chamber, % inhibition vs. control” value ([1]; Treatment Day 2) was −2.7% and the “GM Levels in the Lower Chamber, OD value” ([1]; Treatment Day 2) was 1.02 OD. The “GM Levels in the Lower Chamber, % inhibition vs. control” value ([1]; Treatment Day 3) was 1.7%, the “GM Levels in the Lower Chamber, OD value” ([1]; Treatment Day 3) was 0.97 OD and the “GM Levels in the Lower Chamber, % inhibition vs. control” value ([1]; Treatment Day 4) was −1.4%. For the same compound, the “GM Levels in the Lower Chamber, OD value” ([1]; Treatment Day 4) was 1.02 OD, the “ID50, GM in BALF” value [2] was 1300 µg/mL (≈ 1860 µM) and the “ID50, GM in serum” value [2] was 470 µg/mL (≈ 671 µM). For the same compound, the “ID50, Lung Fungal Load” value [2] was 240 µg/mL (≈ 342 µM).
